Test results taken from ChEMBL document CHEMBL1157883, “Synthesis and biological evaluation of novel 2-arylalkylthio-4-amino-6-benzyl pyrimidines as potent HIV-1 non-nucleoside reverse transcriptase inhibitors” (Bioorg Med Chem Lett, 2010).
The source made the active and inactive calls. The calls are words filed in the database; no cut-off is given here.

How the values were obtained:
[1] = target: Human immunodeficiency virus type 1 reverse transcriptase (Human immunodeficiency virus 1) (UniProt Q72547); assay: Inhibition of HIV1 reverse transcriptase
[2] = target: Human immunodeficiency virus type 1 reverse transcriptase (Human immunodeficiency virus 1, UniProt Q72547); assay: Inhibition of biotin-dUTP labeled HIV-1 reverse transcriptase after 30 mins colorimetric streptavidin alkaline phosphatase reporter system
[3] = system: Human immunodeficiency virus 1; assay: Antiviral activity against HIV1 in cell based assay; assay type: functional, organism-based
[4] = system: Human immunodeficiency virus 1; assay: Antiviral activity against pluri-resistant HIV1 IRLL98 in cell based assay; assay type: functional, organism-based; conditions: Human immunodeficiency virus 1, IRLL98
[5] = target: Human immunodeficiency virus type 1 reverse transcriptase (Human immunodeficiency virus 1) (UniProt Q72547); assay: Inhibition of biotin-dUTP labeled HIV-1 reverse transcriptase at 100 uM after 30 mins colorimetric streptavidin alkaline phosphatase reporter system

Row | SMILES | ID50 [1] | IC50 [2] | EC50 [3] | EC50 [4] | inhibition [5]
1 | CC(Sc1nc(N)cc(Cc2ccccc2)n1)c1ccccc1 (stereo unspecified) | 0.026 µM | 63.9 µM | < 0.00014 µM | 0.00022 µM | 
2 | Cc1cccc(CSc2nc(Cl)cc(Cc3ccccc3)n2)c1 |  | 90.8 µM |  |  | 
3 | Clc1cc(Cc2ccccc2)nc(SCCc2ccccc2)n1 |  |  |  |  | inactive
4 | Clc1cc(Cc2ccccc2)nc(SCc2ccc3ccccc3c2)n1 |  |  |  |  | inactive
5 | Cc1cccc(CSc2nc(N)cc(Cc3ccccc3)n2)c1 | 0.026 µM | 18 µM | < 0.00014 µM | 0.00022 µM | 
6 | CC(C)(C)c1ccc(CSc2nc(Cl)cc(Cc3ccccc3)n2)cc1 |  |  |  |  | inactive
7 | Nc1cc(Cc2ccccc2)nc(SCCc2ccccc2)n1 |  |  | < 0.00014 µM | 0.00022 µM | inactive
8 | CC(C)(C)c1ccc(CSc2nc(Cc3ccccc3)cc(=O)[nH]2)cc1 |  |  |  |  | inactive
9 | Clc1cc(Cc2ccccc2)nc(SCc2ccccc2)n1 |  | > 100 µM |  |  | 
10 | O=c1cc(Cc2ccccc2)nc(SCc2ccc3ccccc3c2)[nH]1 |  |  |  |  | inactive
11 | CC(Sc1nc(Cl)cc(Cc2ccccc2)n1)c1ccccc1 (stereo unspecified) |  |  |  |  | inactive
12 | Cc1ccccc1CSc1nc(N)cc(Cc2ccccc2)n1 | 0.026 µM | 29.9 µM | < 0.00014 µM | 0.00022 µM | 
13 | Nc1cc(Cc2ccccc2)nc(SCc2ccc3ccccc3c2)n1 | 0.026 µM | 17.1 µM | < 0.00014 µM | 0.00022 µM | 
14 | Nc1cc(Cc2ccccc2)nc(SCCCc2ccccc2)n1 |  |  | < 0.00014 µM | 0.00022 µM | inactive
15 | Cc1ccccc1CSc1nc(Cl)cc(Cc2ccccc2)n1 |  |  |  |  | inactive
16 | Nc1cc(Cc2ccccc2)nc(SCc2ccccc2)n1 | 0.026 µM | > 100 µM | < 0.00014 µM | 0.00022 µM | 
17 | CC(C)(C)c1ccc(CSc2nc(N)cc(Cc3ccccc3)n2)cc1 | 0.026 µM |  | < 0.00014 µM | 0.00022 µM | inactive
18 | COc1cccc(CSc2nc(Cl)cc(Cc3ccccc3)n2)c1 |  |  |  |  | inactive
19 | Clc1cc(Cc2ccccc2)nc(SCCCc2ccccc2)n1 |  |  |  |  | inactive
20 | O=c1cc(Cc2ccccc2)nc(SCc2ccccc2)[nH]1 |  |  |  |  | inactive
21 | COc1cccc(CSc2nc(N)cc(Cc3ccccc3)n2)c1 | 0.026 µM | > 100 µM | < 0.00014 µM | 0.00022 µM | 
